Where two headings read alike, the source gives them in different places.
Assays:
[1] = test system: CT26 #7 tumor tissue T cells; experiment: Flow cytometry of T cells in CT26 #7 tumor tissue 1 h after last Q3D dose; format: in vivo, BALB/c-hCD137 mice; details: 5 mg/kg ip Q3D, 1 h after 6th dose
Method: 1 hour after the last vehicle or BCY11863 dose the […] bearing mice were sacrificed and tumors were harvested, processed for single cell suspensions and stained for flow cytometry analysis for total T cells (CD45+CD3+), CD8+ T cells (CD45+CD3+CD8+), CD4+ T cells (CD45+CD3+CD4+) and regulatory T cells (Tregs; CD45+CD3+CD4+Foxp3+).

[2] = Pharmacokinetic profiles in plasma and tumor tissue of CT26 #7 tumor bearing animals; format: in vivo, BALB/c mice; details: female, BALB/c, mouse, single iv 5 mg/kg
Method: 6-8 weeks old BALB/c female mice were inoculated in the flank with 3×10^5 syngeneic Nectin-4 overexpressing CT26 cells (CT26 #7). When tumors reached around 400 mm^3 size on average, mice were randomized to receive a single intravenous dose of vehicle or 5 mg/kg BCY11863. A cohort of mice (n=3/timepoint) were sacrificed at 0.25, 0.5, 1, 2, 4, 8 and 24 h timepoints and harvested plasma and tumor tissue were analyzed for BCY11863. For tumor BCY11863 content analysis, tumor homogenate was prepared by homogenizing tumor tissue with 10 volumes (w:v) of homogenizing solution (MeOH/15 mM PBS (1:2, v:v)). 40 μL of sample was quenched with 200 μL IS1 and the mixture was mixed by vortexing for 10 min at 800 rpm and centrifuged for 15 min at 3220 g at 4° C. The supernatant was transfer to another clean 96-well plate and centrifuged for 5 min at 3220 g at 4° C., and 10.0 μL of supernatant was then injected for LC-MS/MS analysis using an Orbitrap Q Exactive in positive ion mode to determine the concentrations of analyte. For plasma BCY11863 content analysis, blood samples were collected in K2-EDTA tubes and immediately processed to plasma by centrifugation at approximately 4° C., 3000 g. 40 μL of plasma sample was quenched with 200 μL IS1 and the mixture was mixed by vortexing for 10 min at 800 rpm and centrifuged for 15 min at 3220 g at 4° C. […]

rat Nectin-4 = biological target: T1, rat Nectin-4 (Rattus norvegicus, UniProt D3ZET1); experiment: SPR direct binding to biotinylated Nectin-4 extracellular domain, rat
T1 sequence (D3ZET1 31-509): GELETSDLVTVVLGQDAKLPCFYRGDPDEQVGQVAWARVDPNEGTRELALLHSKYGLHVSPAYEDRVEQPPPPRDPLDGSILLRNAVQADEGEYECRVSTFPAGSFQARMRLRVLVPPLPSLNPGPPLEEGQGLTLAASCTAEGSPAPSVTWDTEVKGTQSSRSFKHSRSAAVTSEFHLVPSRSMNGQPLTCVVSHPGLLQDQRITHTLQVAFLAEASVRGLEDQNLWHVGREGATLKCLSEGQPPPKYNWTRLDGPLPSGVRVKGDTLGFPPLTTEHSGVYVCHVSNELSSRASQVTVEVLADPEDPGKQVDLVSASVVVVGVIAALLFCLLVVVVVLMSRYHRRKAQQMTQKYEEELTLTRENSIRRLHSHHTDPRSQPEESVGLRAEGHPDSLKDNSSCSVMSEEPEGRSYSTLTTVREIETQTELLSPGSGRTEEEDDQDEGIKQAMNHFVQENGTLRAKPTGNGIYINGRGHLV
From the text: (§1) The binding of BCY11863 to its primary target Nectin-4 and CD137 was characterized using surface plasmon resonance (SPR).

mouse Nectin-4 = biological target: T2, mouse Nectin-4 (Mus musculus, UniProt Q8R007); experiment: SPR direct binding to biotinylated Nectin-4 extracellular domain, mouse
T2 sequence (Q8R007 31-347 limits assumed): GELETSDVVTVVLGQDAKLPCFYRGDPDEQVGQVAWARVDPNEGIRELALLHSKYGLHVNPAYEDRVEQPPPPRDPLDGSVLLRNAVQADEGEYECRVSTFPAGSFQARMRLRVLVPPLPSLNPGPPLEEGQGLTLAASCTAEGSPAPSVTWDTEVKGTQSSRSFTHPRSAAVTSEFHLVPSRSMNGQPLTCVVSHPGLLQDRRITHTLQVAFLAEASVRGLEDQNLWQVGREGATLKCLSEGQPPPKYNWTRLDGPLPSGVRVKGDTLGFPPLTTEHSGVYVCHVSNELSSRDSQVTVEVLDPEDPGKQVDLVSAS
From the text: as §1

[3] = test system: Nectin-1, Nectin-2, Nectin-3, Nectin-like-1, Nectin-like-2, Nectin-like-3, Nectin-like-4, Nectin-like-5; experiment: Nectin-4 paralogue screening by SPR; format: binding; details: biotinylated targets on streptavidin surface
Method: Nectin-4 Paralogue screening: Binding of BCY11863 was assessed using SPR against Nectin-1 (2880-N1, R&D Systems), Nectin-2 (2229-N2, R&D Systems), Nectin-3 (3064-N3, R&D Systems), Nectin-like-1 (3678-S4-050, R&D Systems), Nectin-like-2 (3519-S4-050, R&D Systems), Nectin-like-3 (4290-S4-050, R&D Systems), Nectin-like-4 (4164-S4, R&D Systems) and Nectin-like-5 (2530-CD-050, R&D Systems) by labelling them with biotin and immobilizing them on a streptavidin surface.

[4] = KD, biotinylated ECD captured on streptavidin chip

In the case of `CCCC[C@@H]1NC(=O)[C@H](Cc2ccc(O)cc2)NC(=O)[C@@H]2CCCN2C(=O)[C@H](CC(=O)O)NC(=O)[C@H](C)NC(=O)[C@H](Cc2ccccc2)NC(=O)[C@@H]2CSCCC(=O)N3CN(CN(C3)C(=O)CCSC[C@@H](C(=O)N[C@@H](C)C(N)=O)NC1=O)C(=O)CCSC[C@H](NC(C)=O)C(=O)N[C@@H](CC(C)(C)C)C(=O)N1CCC[C@H]1C(=O)N[C@@H](CCC(=O)O)C(=O)N[C@H](CCCCNC(=O)CCc1cn(CCOCCOCCOCCN(CCOCCOCCOCCC(=O)N[C@H]3CSCCC(=O)N4CN5CN(C4)C(=O)CCSC[C@H](NC(=O)[C@@H](CC(=O)O)NC(=O)[C@H](Cc4cccc6ccccc46)NC(=O)[C@@H]4CCCN4C3=O)C(=O)N[C@@H](CCSC)C(=O)N[C@@H](CCCCNC(=N)N)C(=O)N[C@@H](CC(=O)O)C(=O)N[C@@H](Cc3c[nH]c4ccccc34)C(=O)N[C@@H](CO)C(=O)N[C@@H]([C@@H](C)O)C(=O)N3CCC[C@H]3C(=O)N3C[C@H](O)C[C@H]3C(=O)N[C@@H](Cc3c[nH]c4ccccc34)C(=O)N[C@H](C(N)=O)CSCCC5=O)CCOCCOCCOCCn3cc(CCC(=O)NCCCC[C@H]4NC(=O)[C@H](CCC(=O)O)NC(=O)[C@@H]5CCCN5C(=O)[C@H](CC(C)(C)C)NC(=O)[C@@H](NC(C)=O)CSCCC(=O)N5CN6CN(C5)C(=O)CCSC[C@H](NC(=O)[C@H](Cc5ccc(O)cc5)NC(=O)[C@@H]5CCCN5C4=O)C(=O)N[C@@H](Cc4ccccc4)C(=O)N[C@@H](C)C(=O)N[C@@H](CC(=O)O)C(=O)N4CCC[C@H]4C(=O)N[C@@H](Cc4ccc(O)cc4)C(=O)N[C@@H](CCCC)C(=O)N[C@H](C(=O)N[C@@H](C)C(N)=O)CSCCC6=O)nn3)nn1)C(=O)N1CCC[C@H]1C(=O)N[C@@H](Cc1ccc(O)cc1)C(=O)N2` [BCY11863], the “CD8+ T cells in tumor” value ([1]; p<0.0001) is reported as “significant increase”, the “total T cells (CD45+CD3+) in tumor” value ([1]; p<0.0001) is reported as “significant increase” and the “CD8+ T cell/Treg ratio in tumor” value ([1]; p<0.05) is reported as “significant increase”. The half-life ([2]; plasma, read-out: plasma T1/2 (converted)) was 1.65 h, the half-life ([2]; tumor tissue, read-out: tumor T1/2 (converted)) was 13.4 h and the Kd (rat Nectin-4; [4]) was 5 to 27 nM. The Kd (rat Nectin-4; SPR KD Rat (25° C.), Direct Binding, biotinylated Nectin-4 extracellular domain, 25° C.) was 15 ± 1 nM, the Kd (mouse Nectin-4; [4]) was 5 to 27 nM and the Kd (mouse Nectin-4; SPR KD Mouse (25° C.), Direct Binding, biotinylated Nectin-4 extracellular domain, 25° C.) was 4.6 ± 2.1 nM. The “binding to Nectin-4 paralogues: concentration up to which no binding was shown” value [3] was greater than 5000 nM.
